Test results as given in the NIST ThermoML archive (doi:10.1016/j.tca.2008.12.007).
Values joined by “and” are separate entries in the source; they are usually repeats but may differ in a detail not shown here. Equal entries are not always repeated.

Experiment: xn = mol fraction of the nth substance listed
Settings: 101 kPa, Liquid, Vibrating tube method

C1CCCNCC1 [azacycloheptane] + O
mass density
Settings	283.15 K	288.15 K	293.15 K	298.15 K	303.15 K	308.15 K	313.15 K
x2 = 0.0199	891.47 kg/m3	887.05 kg/m3	882.62 kg/m3	878.18 kg/m3	873.74 kg/m3	869.29 kg/m3	864.83 kg/m3
x2 = 0.0395	892.56 kg/m3	888.13 kg/m3	883.7 kg/m3	879.25 kg/m3	874.8 kg/m3	870.34 kg/m3	865.87 kg/m3
x2 = 0.0821	895.27 kg/m3	890.84 kg/m3	886.39 kg/m3	881.94 kg/m3	877.47 kg/m3	872.99 kg/m3	868.49 kg/m3
x2 = 0.1198	897.59 kg/m3	893.16 kg/m3	888.7 kg/m3	884.23 kg/m3	879.75 kg/m3	875.26 kg/m3	870.75 kg/m3
x2 = 0.1594	900.05 kg/m3	895.61 kg/m3	891.15 kg/m3	886.67 kg/m3	882.19 kg/m3	877.68 kg/m3	873.16 kg/m3
x2 = 0.1994	902.85 kg/m3	898.4 kg/m3	893.94 kg/m3	889.46 kg/m3	884.96 kg/m3	880.45 kg/m3	875.92 kg/m3
x2 = 0.2498	906.32 kg/m3	901.88 kg/m3	897.41 kg/m3	892.92 kg/m3	888.42 kg/m3	883.9 kg/m3	879.35 kg/m3
x2 = 0.3	909.81 kg/m3	905.38 kg/m3	900.91 kg/m3	896.42 kg/m3	891.91 kg/m3	887.38 kg/m3	–
x2 = 0.3499	913.73 kg/m3	909.3 kg/m3	904.84 kg/m3	900.36 kg/m3	895.85 kg/m3	891.32 kg/m3	–
x2 = 0.4	917.67 kg/m3	913.25 kg/m3	908.79 kg/m3	904.32 kg/m3	899.81 kg/m3	895.28 kg/m3	–
x2 = 0.4529	922.26 kg/m3	917.86 kg/m3	913.42 kg/m3	908.96 kg/m3	904.46 kg/m3	899.94 kg/m3	–
x2 = 0.5008	926.61 kg/m3	922.24 kg/m3	917.83 kg/m3	913.38 kg/m3	908.91 kg/m3	904.4 kg/m3	–
x2 = 0.5041	926.61 kg/m3	922.23 kg/m3	917.82 kg/m3	913.38 kg/m3	908.91 kg/m3	904.4 kg/m3	–
x2 = 0.5508	931.05 kg/m3	926.72 kg/m3	922.34 kg/m3	917.93 kg/m3	913.48 kg/m3	909 kg/m3	–
x2 = 0.5992	935.7 kg/m3	931.42 kg/m3	927.09 kg/m3	922.72 kg/m3	918.31 kg/m3	913.86 kg/m3	–
x2 = 0.65	941.01 kg/m3	936.79 kg/m3	932.53 kg/m3	928.22 kg/m3	923.88 kg/m3	919.49 kg/m3	–
x2 = 0.699	946.42 kg/m3	942.29 kg/m3	938.12 kg/m3	933.9 kg/m3	929.63 kg/m3	925.32 kg/m3	–
x2 = 0.7496	952.51 kg/m3	948.5 kg/m3	944.46 kg/m3	940.36 kg/m3	936.22 kg/m3	932.02 kg/m3	–
x2 = 0.7994	959.33 kg/m3	955.51 kg/m3	951.64 kg/m3	947.71 kg/m3	943.73 kg/m3	939.69 kg/m3	–
x2 = 0.8398	965.5 kg/m3	961.88 kg/m3	958.2 kg/m3	954.47 kg/m3	950.68 kg/m3	946.83 kg/m3	–
x2 = 0.8799	972.62 kg/m3	969.3 kg/m3	965.9 kg/m3	962.45 kg/m3	958.91 kg/m3	955.31 kg/m3	–
x2 = 0.92	981.18 kg/m3	978.28 kg/m3	975.3 kg/m3	972.24 kg/m3	969.1 kg/m3	965.86 kg/m3	–
x2 = 0.9597	–	–	–	984.66 kg/m3 and 984.68 kg/m3	–	–	–
x2 = 0.9599	991.53 kg/m3	989.32 kg/m3	986.99 kg/m3	984.54 kg/m3	981.98 kg/m3	979.29 kg/m3	–
x2 = 0.96	991.6 kg/m3	989.39 kg/m3	987.06 kg/m3	984.61 kg/m3	982.04 kg/m3	979.35 kg/m3	–
x2 = 0.9699	994.44 kg/m3	992.49 kg/m3	990.4 kg/m3	988.16 kg/m3	985.8 kg/m3	983.3 kg/m3	–
x2 = 0.9798	–	–	–	991.9 kg/m3	–	–	–
x2 = 0.98	997.1 kg/m3	995.56 kg/m3	993.8 kg/m3	991.86 kg/m3	989.75 kg/m3	987.48 kg/m3	–
x2 = 0.9851	–	–	–	993.77 kg/m3	–	–	–
x2 = 0.9882	–	–	–	994.59 kg/m3	–	–	–
x2 = 0.9899	–	–	–	994.98 kg/m3	–	–	–
x2 = 0.9921	–	–	–	995.43 kg/m3	–	–	–
x2 = 0.994	–	–	–	995.81 kg/m3	–	–	–
